Source: US20210255193A1, “LYSINE REACTIVE PROBES AND USES THEREOF” (The Scripps Research Institute, priority 2017, published 2021)

Columns and labels:
Test in all cases: competitive isoTOP-ABPP
Assay type in all cases: binding
FAM136A Protein FAM136A = target: T1, FAM136A Protein FAM136A (Homo sapiens, UniProt Q96C01); conditions: 50 uM_231_sol_in vitro
T1 construct: isoTOP-ABPP experiments performed in cell lysates (in vitro); endogenous in cells; host or cells: soluble proteome of human cancer cell lines (MDA-MB-231; Ramos and Jurkat also prepared)
T1 sequence (Q96C01 whole entry): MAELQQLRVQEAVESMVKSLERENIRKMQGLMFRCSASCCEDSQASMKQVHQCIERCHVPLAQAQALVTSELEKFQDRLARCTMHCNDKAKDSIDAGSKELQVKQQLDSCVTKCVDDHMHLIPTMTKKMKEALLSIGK
Summary of the method: (§1)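 Here, isoTOP-ABPP measures loss of STP-alkyne labeling at individual lysines after fragment exposure in lysate. Activated esters are dosed at 50 μM, guanidinylating agents at 100 μM; the probe follows at 0.1 mM for 1 h. R ≥4 marks a liganded lysine.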

[1] = target: T2, MRPL12 39S ribosomal protein L12, mitochondrial (Homo sapiens, UniProt P52815); conditions: 50 uM_231_sol_in vitro; possible other lysine B4DLN1_K87, P52815_K91
T2 construct: isoTOP-ABPP experiments performed in cell lysates (in vitro); endogenous in cells; host or cells: soluble proteome of human cancer cell lines (MDA-MB-231, Ramos, Jurkat)
Summary of the method: as §1

[2] = target: T3, SMPD1 Sphingomyelin phosphodiesterase (Homo sapiens, UniProt P17405); conditions: 50 uM_231_sol_in vitro
T3 construct: isoTOP-ABPP experiments performed in cell lysates (in vitro); endogenous in cells; host or cells: soluble proteome of human cancer cell lines (MDA-MB-231; Ramos and Jurkat also prepared)
T3 sequence (P17405 47-631): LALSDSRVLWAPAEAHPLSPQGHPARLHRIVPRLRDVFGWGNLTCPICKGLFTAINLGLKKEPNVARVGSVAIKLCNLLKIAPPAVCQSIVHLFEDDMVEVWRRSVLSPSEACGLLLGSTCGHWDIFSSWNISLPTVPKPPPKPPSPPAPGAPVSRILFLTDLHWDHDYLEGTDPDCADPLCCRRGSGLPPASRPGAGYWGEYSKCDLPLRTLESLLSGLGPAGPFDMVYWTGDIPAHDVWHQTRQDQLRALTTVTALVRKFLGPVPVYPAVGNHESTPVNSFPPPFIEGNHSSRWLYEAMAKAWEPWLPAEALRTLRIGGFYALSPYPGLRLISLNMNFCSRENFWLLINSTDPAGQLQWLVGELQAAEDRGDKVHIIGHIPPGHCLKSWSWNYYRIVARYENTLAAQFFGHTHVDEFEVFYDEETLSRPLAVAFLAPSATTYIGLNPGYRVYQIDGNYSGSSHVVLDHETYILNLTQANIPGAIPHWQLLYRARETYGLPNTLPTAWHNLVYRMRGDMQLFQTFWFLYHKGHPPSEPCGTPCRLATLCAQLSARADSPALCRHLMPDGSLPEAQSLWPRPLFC
Summary of the method: as §1

[3] = target: T4, SOD2 Superoxide dismutase (Homo sapiens, UniProt P04179); conditions: 50 uM_231_sol_in vitro
T4 construct: isoTOP-ABPP experiments performed in cell lysates (in vitro); endogenous in cells; host or cells: MDA-MB-231 soluble lysate
T4 sequence (P04179 25-222): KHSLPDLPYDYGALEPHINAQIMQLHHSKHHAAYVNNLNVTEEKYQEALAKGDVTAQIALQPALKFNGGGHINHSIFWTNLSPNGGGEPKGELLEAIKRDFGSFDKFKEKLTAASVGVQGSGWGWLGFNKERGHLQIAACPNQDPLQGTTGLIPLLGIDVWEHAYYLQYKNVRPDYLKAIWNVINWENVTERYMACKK
Summary of the method: as §1

Structure (SMILES)	isoTOP-ABPP ratio, lysine Q96C01_K99 (FAM136A Protein FAM136A)	isoTOP-ABPP ratio, lysine P52815_K87 [1]	isoTOP-ABPP ratio, lysine P17405_K118 [2]	isoTOP-ABPP ratio, lysine P04179_K68 [3]
O=C(CCc1ccc2c(c1)OCO2)Oc1ccc([N+](=O)[O-])cc1[N+](=O)[O-] [fragment 45, 2,4-Dinitrophenyl 3-(benzo[d][1,3]dioxol-5-yl)propanoate]	1.0	1.8	1.1	0.9
O=C(ON1C(=O)CCC1=O)c1cc(C(F)(F)F)cc(C(F)(F)F)c1 [fragment 46, 3,5-Bis(trifluoromethyl)benzoic acid NHS ester]	0.6	0.6	0.7	0.9
